Test results: PMC10036551, “Genome mining unveils a class of ribosomal peptides with two amino termini” (Nature Communications, 2023)
Residues, ends and D or L forms follow the SMILES beside them. *: point of attachment. X1 = C[C@@H](CN*)N(C)C

Assay type: physicochemical
Protocol: The HPLC-purified products were analyzed by high-resolution mass spectrometry and tandem mass spectrometry (HR-MS/MS). […] Considering the predicted functions of genes encoded by the mpa BGC, we proposed that Thr underwent conversion to Dmp. To evaluate this hypothesis, a sufficient amount of 1 was accumulated for structure determination, due to its higher post-purification yield than 2 and 3. […] NMR analyses (^1H, ^13C, ^1H-^1H COSY, ^1H-^13C HSQC and ^1H-^13C HMBC) were then conducted in HFIP-d2 and a substructure corresponding to Dmp was deduced.

solubility in commonly used NMR solvents: only sparingly soluble
solubility in hexafluoroisopropanol (HFIP): highly soluble
SMILES: CC[C@H](C)[C@H](NC(=O)CNC(=O)[C@@H](NC(=O)[C@H](CC(C)C)NC(=O)[C@@H](NC(=O)[C@H](CC(C)C)NC(=O)[C@H](C)NC(=O)CNC(=O)[C@@H](NC(=O)[C@@H](NC(=O)CNC(=O)[C@H](CCC(N)=O)NC(=O)[C@H](Cc1ccc(O)cc1)NC(=O)[C@H](Cc1ccccc1)NC(=O)[C@H](CO)NC(=O)[C@H](CC(=O)O)NC(=O)[C@H](Cc1c[nH]c2ccccc12)NC(=O)[C@@H](N)CO)C(C)C)[C@@H](C)CC)C(C)C)[C@@H](C)CC)C(=O)NCC(=O)N[C@@H](C)C(=O)N[C@@H](C)C(=O)N[C@@H](C)C(=O)N[C@@H](C)C(=O)NC[C@H](C)N(C)C [compound 1] (H-SWDSFYQGVIGALVLIGIGAAAA-X1)
